Data published in patent US5543396A, “Proline phosphonate derivatives” (priority 1994, dated 1996).

Columns and labels:
[1] = molecular target: T1, Human Placenta DPP-IV (Homo sapiens, UniProt P27487); test: Inhibition of DPP-IV by peptidyl phosphonates, incubation method; format: biochemical; settings: for inhibition of DPP-IV, in words: inhibitor 0.12 mM
T1 construct: from tissue; host or cells: human placenta
Description: Standard Assay of DPP-IV. DPP-IV was assayed in 450 μL of 50 mM Tris, pH 7.8, 0.2 mM Ala-Pro-AFC (freshly diluted from a 20 mM stock in DMF), and 5 μL of enzyme solution at 30° C. or in 2 mL of buffer, 0.2 mM Ala-Pro-AFC (diluted from 8 mM stock in Me2 SO) at 23° C. Fluorescence was measured at 400 nm excitation and 505 nm emission. One unit of DPP-IV is defined as the amount of enzyme that will hydrolyze 1.0 μmole of Ala-Pro-AFC per min at 25° C. and pH 7.8.
Enzyme Irreversible Inactivation--Incubation Method. An aliquot of inhibitor (25 or 50 μL) in Me2 SO was added to 0.28-0.55 mL of a buffered enzyme solution (0.83 munits for DPP-IV; 2.1 units for acetylcholinesterase; 0.07-4.5 μM for other enzymes) to initiate the inactivation reaction. Aliquots (20-250 μL) were withdrawn at various intervals and the residual enzymatic activity was measured at 23° C. as described below. The buffers were: 0.05M Tris, pH 7.8 for DPP-IV; 0.1M Hepes, 0.01M CaCl2, pH 7.5 for bovine trypsin; 0.1M Hepes, 0.5M NaCl, pH 7.5 for bovine chymotrypsin, PPE, and HLE; 0.1M phosphate, pH 7.5 for acetylcholinesterase; 50 mM Tris-HCl, 2 mM EDTA, 5 mM cysteine, (freshly prepared) pH 7.5 buffer for papain and 100 mM KH2 PO4, 1.33 mM EDTA, 2.7 mM cysteine (freshly prepared), pH 6.0 buffer for cathepsin B. […] The inhibitor concentrations are shown in the appropriate table. Stock solutions of substrates were prepared in Me2 SO and stored at -20° C. DPP-IV was assayed with TFA.Ala-Pro-AFC. Papain and cathepsin B were assayed with Bz-Arg-AMC and Z-Arg-Arg-AMC, respectively. The release of AMC were followed fluorometrically (excitation at 380 nm and emmision at 460 nm for AMC). Acetylcholinesterase was assayed with acetylthiocholine iodide in the presence of DTNB at 412 nm. Trypsin was assayed with Z-Phe-Gly-Arg-.rho.NA.HCl (0.09 mM), chymotrypsin was assayed with Suc-Phe-Thr-Phe-.rho.NA (0.48 mM), PPE and HLE were assayed with Suc-Ala-Ala-Ala-.rho.NA (0.44 mM) and MeO-Suc-Ala-Ala-Pro-Val-.rho.NA (0.24 mM), respectively. Peptide .rho.-nitroanilide hydrolysis was measured at 410 nm (ε410 =8,800 M ^1 cm^-1). Pseudo first-order inactivation rate constants (kobs) were obtained from plots of In vt /vo vs time, and the correlation coefficients were greater than 0.98.

[2] = molecular target: Chymotrypsin (Bos taurus, UniProt P00766); test: Inhibition of chymotrypsin, incubation method; format: biochemical, bovine
Description: Inactivation rates of serine proteases by aryl diesters of peptidyl derivatives of α-aminoalkylphosphonates were measured by the incubation method. An aliquot of inhibitor (25 or 50 μl) in Me2 SO was added to a buffered enzyme solution (0.01-2.3 μM) to initiate the inactivation. Aliquots (50 μl) were withdrawn at various intervals and the residual enzymatic activity was measured. Me2 SO concentration in the reaction mixture was 8-12% (v/v). A 0.1M HEPES, 0.01M CaCl2, pH 7.5 buffer was utilized for trypsin and trypsin-like enzymes. A 0.1M HEPES, 0.5M NaCl, pH 7.5, was utilized for the other serine proteases. Peptide thioesters or peptide nitroanilides with the appropriate sequences were used as substrates for various serine proteases. All peptide thioesters hydrolysis rates were measured with the assay mixture containing 4,4'-dithiodipyridine (ε324 =19800M^-1 cm^-1). Peptide 4-nitroanilide hydrolysis was measured at 410 nm (ε410 =8800 M ^-1 cm^-1). First order inactivation rate constants (kobs) were obtained from plots of ln vt /vo vs time, and the correlation coefficients were greater then 0.98.
Enzyme Irreversible Inactivation--Incubation Method. An aliquot of inhibitor (25 or 50 μL) in Me2 SO was added to 0.28-0.55 mL of a buffered enzyme solution (0.83 munits for DPP-IV; 2.1 units for acetylcholinesterase; 0.07-4.5 μM for other enzymes) to initiate the inactivation reaction. Aliquots (20-250 μL) were withdrawn at various intervals and the residual enzymatic activity was measured at 23° C. as described below. The buffers were: 0.05M Tris, pH 7.8 for DPP-IV; 0.1M Hepes, 0.01M CaCl2, pH 7.5 for bovine trypsin; 0.1M Hepes, 0.5M NaCl, pH 7.5 for bovine chymotrypsin, PPE, and HLE; 0.1M phosphate, pH 7.5 for acetylcholinesterase; 50 mM Tris-HCl, 2 mM EDTA, 5 mM cysteine, (freshly prepared) pH 7.5 buffer for papain and 100 mM KH2 PO4, 1.33 mM EDTA, 2.7 mM cysteine (freshly prepared), pH 6.0 buffer for cathepsin B. The Me2 SO concentration in the reaction mixtures was 8-9% (v/v). The inhibitor concentrations are shown in the appropriate table. Stock solutions of substrates were prepared in Me2 SO and stored at -20° C. DPP-IV was assayed with TFA.Ala-Pro-AFC. Papain and cathepsin B were assayed with Bz-Arg-AMC and Z-Arg-Arg-AMC, respectively. The release of AMC were followed fluorometrically (excitation at 380 nm and emmision at 460 nm for AMC). Acetylcholinesterase was assayed with acetylthiocholine iodide in the presence of DTNB at 412 nm. Trypsin was assayed with Z-Phe-Gly-Arg-.rho.NA.HCl (0.09 mM), chymotrypsin was assayed with Suc-Phe-Thr-Phe-.rho.NA (0.48 mM), PPE and HLE were assayed with Suc-Ala-Ala-Ala-.rho.NA (0.44 mM) and MeO-Suc-Ala-Ala-Pro-Val-.rho.NA (0.24 mM), respectively. Peptide .rho.-nitroanilide hydrolysis was measured at 410 nm (ε410 =8,800 M ^1 cm^-1). […]

[3] = molecular target: DPP-IV (Homo sapiens, UniProt P27487); test: Stability of inhibited DPP-IV
DPP-IV, sequence (P27487 whole entry): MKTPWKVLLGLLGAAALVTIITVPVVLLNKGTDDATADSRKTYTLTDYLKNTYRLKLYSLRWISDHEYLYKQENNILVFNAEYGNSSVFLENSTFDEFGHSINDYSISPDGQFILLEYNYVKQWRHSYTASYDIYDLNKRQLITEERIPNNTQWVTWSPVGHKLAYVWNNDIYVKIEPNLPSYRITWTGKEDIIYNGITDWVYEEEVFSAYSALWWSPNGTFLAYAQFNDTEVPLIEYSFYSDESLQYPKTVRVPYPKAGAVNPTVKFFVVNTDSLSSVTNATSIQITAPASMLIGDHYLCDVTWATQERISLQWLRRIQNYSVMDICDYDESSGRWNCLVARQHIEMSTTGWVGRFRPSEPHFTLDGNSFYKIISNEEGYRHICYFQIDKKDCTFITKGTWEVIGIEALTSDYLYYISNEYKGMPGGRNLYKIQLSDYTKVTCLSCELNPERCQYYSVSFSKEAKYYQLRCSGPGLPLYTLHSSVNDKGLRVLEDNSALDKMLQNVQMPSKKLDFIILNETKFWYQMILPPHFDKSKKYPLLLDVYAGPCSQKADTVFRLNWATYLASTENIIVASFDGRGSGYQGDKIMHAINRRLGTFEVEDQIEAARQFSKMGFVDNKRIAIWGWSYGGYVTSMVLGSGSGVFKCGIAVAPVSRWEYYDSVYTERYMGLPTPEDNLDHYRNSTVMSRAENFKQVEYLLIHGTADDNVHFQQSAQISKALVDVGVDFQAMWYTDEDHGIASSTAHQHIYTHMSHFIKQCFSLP
Description: Excess inhibitors in the inhibited enzyme solution were removed by centrifugation of the diluted enzyme solution twice using Amicon microconcentrators.
Stability of Inhibited DPP-IV. […] Excess inhibitors was removed from diluted solutions of inactivated enzyme by centrifugation three times at 0° C. for 1 h each in Amicon Centricon-10 microconcentrators following addition of buffer. The enzyme activity of solution was assayed at various intervals as described above.

[4] = Half-lives for spontaneous hydrolysis of inhibitors in buffer; format: physicochemical; settings: 0.05 M Tris, pH 7.8 buffer, 8% Me2SO, 23° C.
Description: Determination of Half-Lives for Spontaneous Hydrolysis of Inhibitors in Buffer. […] The spontaneous hydrolysis was monitored by following the increase in absorbance at 270 nm for phosphonates with phenoxy groups, at 280 nm for compounds with 4-.chlorophenoxy groups or at 277 nm for the 4-fluorophenoxy derivative. Half-lives were obtained from first-order plots of ln (Af -At) vs time, where At is the absorbance of the mixture at time t, and Af is the final absorbance of phosphonate monophenyl ester and phenol (or corresponding compounds). This was obtained from the absorbance of the solution which had remained constant for a few hours. All the plots gave correlation coefficients of 0.95 or greater.

[5] = Hydrolysis in human plasma; format: in vitro ADME
Description: Furthermore, they show excellent stability in human plasma. For example Suc-Val-Pro-Phe^P (OPh)2 has a hydrolysis half-time in human plasma of about 20 hrs. […] Thus they can be used under a variety of conditions. Phosphonates have the additional advantage of being very stable in plasma and will have a high effectiveness in […] vivo due to their long lifetimes.

T1 sequence (P27487 whole entry): as above

Row | Compound | kobs /[I] for DPP-IV ([1]; [I] 0.042 mM, 0.05 M Tris pH 7.8, 8% Me2SO, 23° C., substrate TFA.Ala-Pro-AFC 0.2 mM) [M⁻¹ s⁻¹] | % Inhibition 2 min ([1]; [I] 0.12 mM, 2 min incubation, 0.05 M Tris pH 7.8, 5% Me2SO, 23° C., substrate TFA.Ala-Pro-AFC 0.190 mM) [%] | % Inhibition 30 min ([1]; [I] 0.12 mM, 30 min incubation, 0.05 M Tris pH 7.8, 5% Me2SO, 23° C., substrate TFA.Ala-Pro-AFC 0.190 mM) [%] | inhibition of DPP-IV, in words ([1]; 2 min incubation) | inhibition of DPP-IV, in words ([1]; 30 min incubation) | inhibition of chymotrypsin, in words [2] | kobs /[I] Chymotrypsin ([2]; [I] 0.42 mM, 0.1 M Hepes, 0.5 M NaCl, pH 7.5, 8-9% Me2SO, 23° C., Suc-Phe-Thr-Phe-pNA 0.48 mM) [M⁻¹ s⁻¹] | recovery of enzyme activity of inhibited DPP-IV ([3]; after 24 h, excess inhibitor removed by centrifugation) | DPP-IV enzyme activity found after incubation with inhibitor ([3]; inhibitor 0.042-0.42 mM, pH 7.8 buffer, incubation for 1 h) | t1/2, half-life for hydrolysis [4] [h] | hydrolysis half-time in human plasma [5]
1 | C[C@H](N)C(=O)N1CCCCC1P(=O)(Oc1ccc(Cl)cc1)Oc1ccc(Cl)cc1.Cl (some centres unmarked) [Compound 13, Di(4-chlorophenyl) Alanylpiperidine-2-phosphonate Hydrochloride] | 156 | 88 | 100 | effectively inhibited | showed some inhibitory potency | very slowly | 18 | did not regain enzyme activity | no enzyme activity | 67 | 
2 | Suc-Val-Pro-Phe^P (OPh)2 |  |  |  |  |  |  |  |  |  |  | about 20 hrs
